From patent US10450566B2, “Compounds for inducing anti-tumor immunity and methods thereof” (Cornell University, priority 2013, dated 2019)

How the values were obtained:
Format in all cases: cell-based, mouse
[1] = test system: 4-HNE-protein adducts; assay: 4-HNE-protein adducts in DCs by competitive ELISA
Experimental: (§1) Murine recombinant cytokines were purchased from Peprotech. Cobalt chloride, Tunicamycin (used at 1 μg/ml), Tiron (used at 100-500 μM) and Vitamin E (α-tocopherol, used at 50-100 μM) were from Sigma. DCFDA staining was utilized for intracellular ROS detection (Abcam). Purified 4-HNE was obtained from Cayman Chemical and 4-HNE-protein adducts in ascites samples and DCs were detected and quantified through competitive ELISA (Cell Biolabs). TOFA (Cayman Chemical) was used at a final concentration of 5 μg/ml to inhibit fatty acid synthesis in DCs by blocking the synthesis of malonyl-CoA by acetyl-CoA carboxylase. The IRE-1α-specific inhibitor 4μ8c (Millipore) was used at a final concentration of 10 μM.
(§2) Whether these reactive aldehyde byproducts could trigger ER stress in DCs was investigated. […] Accordingly, intracellular 4-HNE-protein adducts were also readily found in tDCs isolated from these malignant samples (FIG. 4D). 4-HNE generation in mouse tDCs exposed to cell-free ovarian cancer ascites decreased upon exposure to the common antioxidant Vitamin E (FIG. 4E).

[2] = test system: XBP1; assay: XBP1 splicing and ER stress/lipid gene expression in naïve sDCs by RT-PCR/RT-qPCR
Experimental: as §1
Total RNA from human samples was isolated using the miRVANA miRNA isolation Kit (Life Technologies). RNA from mouse samples was isolated using the Qiazol reagent (Qiagen). […] of RNA were used to generate cDNA using the High Capacity cDNA Reverse Transcription Kit (Life Technologies). Human and mouse Xbp1 splicing assays were performed as described (Lee et al., 2003a; Martinon et al., 2010) using conventional Reverse Transcription PCR (RT-PCR) and primers shown in Table 1. Gene expression analysis was done via Reverse Transcription quantitative PCR (RT-qPCR) using a Stratagene Mx3005 instrument and SYBR green I (Life Technologies). […] All primers used in this study are described in Table 1.
One goal of the present invention was to investigate how the tumor microenvironment influences the functional status of XBP1 in DCs. In particular, one aim of the present invention was to investigate whether cancer-derived factors could participate in triggering ER stress and XBP1 activation in tumor-infiltrating DCs, and determine whether this process could impact the detrimental function of these innate immune cells in hosts with ovarian cancer. […] In particular, naïve sDCs were isolated and stimulated for 24h with cytokines (e.g., IL-10, TGF-β, VEGFα, KC, CCL3, IL-6) at concentrations ranging from 5 ng/ml to 25 ng/ml (FIG. 3A-D). Cells were also exposed for 24 hours to increasing concentrations of cobalt chloride (CoCl2), a chemical inducer of the HIF1α pathway that mimics low oxygen conditions (Piret et al. 2002) (FIG. 3E-F). Splicing and upregulation of XBP1 was determined by RT-qPCR analysis (FIG. 3).
as §2

[3] = test system: tDCs; assay: Intracellular lipid content of tDCs by BODIPY 493/503 staining and flow cytometry; conditions: tDCs with 25% cell-free ovarian cancer ascites, 24h, Bodipy493/503
Experimental: FIG. 9G: graphically depicts the intracellular lipid content of tDCs incubated in vitro with 25% cell-free ovarian cancer ascites supernatants in the presence of the indicated inhibitors. Intracellular lipid content was assessed 24h later via Bodipy493/503 staining. Data are representative of 3 independent experiments with similar results. #P<0.05 compared with control tDC incubated in the absence of cell-free ascites supernatants. *P<0.05 compared with ascites-exposed tDC but left untreated.
as §1
Intracellular lipid content in DCs was evaluated via flow cytometry using 4,4-Difluoro-1,3,5,7,8-Pentamethyl-4-Bora-3a,4a-Diaza-s-Indacene (BODIPY 493/503, Life Technologies) as previously reported (Herber et al., 2010). […] Cells were washed twice with 1×PBS and stained with 500 μl of BODIPY 493/503 at […] in PBS for 15 min at room temperature in the dark. Cells were washed twice and analyzed by flow cytometry. BODIPY 493/503 staining was detected in the PE channel. For intracellular cytokine staining, 5×10^6 cells isolated from malignant peritoneal wash samples of ovarian cancer-bearing mice were stimulated for 6h in 10% FBS complete RPMI containing PMA (Calbiochem), lonomycin (Calbiochem) and Brefeldin A (BioLegend). […] Flow cytometry data was analyzed using FlowJo version 9 or 10.

[4] = test system: tDCs; assay: In vitro antigen presentation: OVA-pulsed tDCs cocultured with CFSE-labeled OT-1 T cells; conditions: wild type tDC pre-treated, full-length OVA, cell-free malignant ascites
Experimental: For in vitro antigen presentation experiments, tDC or sDC were sorted from the peritoneal cavity or spleen of XBP1^f/f or XBP1^f/f CD11c-Cre female mice bearing ID8-Defb29/Vegf-A ovarian tumors for 4 weeks (FIG. 1). tDCs were pulsed for overnight 50 μg/ml of full-length endotoxin-free OVA (SIGMA, Grade VII) in the presence or absence of Vitamin E (50 μg/ml) in media containing 25% cell-free ovarian cancer ascites supernatants. DCs were washed twice and cocultured for 3 days with CFSE-labeled CD8^+ T cells immunopurified from OT-1 mice at a 1:10 (DC to T cell) ratio, as previously described (Scarlett et al., 2009).

[5] = naïve sDCs exposed for 3h to increasing amounts

CCCCCC(O)/C=C/C=O (stereo not drawn) [4-HNE, 4-hydroxy-trans-2-nonenal]
formation of intracellular 4-HNE-protein adducts ([1]; naïve sDCs, increasing concentrations of purified 4-HNE): efficiently formed covalent adducts with intracellular proteins | BiP and CHOP gene expression (general ER stress response markers) [2, 5]: robust induction | ERdj4 gene expression [2, 5]: upregulation | splicing of the Xbp1 mRNA [2, 5]: rapidly triggered splicing of the Xbp1 mRNA | expression of lipid biosynthetic genes Agpat6, Fasn and Lpar1 ([2]; naïve sDCs stimulated for 3h): rapidly upregulated

Cc1cc(=O)oc2c(C=O)c(O)ccc12 [4μ8c]
intracellular lipid content of tDCs [3]: restricted the observed ascites-induced lipid biogenesis

CCCCCCCCCCCCCCOc1ccc(C(=O)O)o1 [TOFA]
intracellular lipid content of tDCs [3]: prevented

Cc1c(C)c2c(c(C)c1O)CC[C@@](C)(CCC[C@H](C)CCC[C@H](C)CCCC(C)C)O2 [Vitamin E, α-tocopherol]
4-HNE generation (intracellular 4-HNE-protein adducts) in tDCs ([1]; mouse tDCs exposed to cell-free ovarian cancer ascites): decreased | antigen-presenting capacity (expansion of OT-1 T cells) [4]: phenocopied the enhanced antigen-presenting capacity exhibited by XBP1-deficient tDCs | intracellular lipid content of tDCs [3]: reduced intracellular lipid content
